Measurements published in publication PMC8838583, “Inhibition of Human Monoamine Oxidases A and B by Specialized Metabolites Present in Fresh Common Fruits and Vegetables” (Plants, 2022).
Read-outs that look alike come from different tables or passages of the source.

What was measured:
[1] = target: T1, human MAO-A (Homo sapiens, UniProt P21397); test: MAO-Glo bioluminescent MAO-A inhibition assay; format: biochemical; conditions: Table 1
T1 construct: purchased MilliporeSigma (Milan, Italy); host or cells: baculovirus-infected insect cells (BTI-TN-5B1-4)
T1 sequence (P21397 1-527): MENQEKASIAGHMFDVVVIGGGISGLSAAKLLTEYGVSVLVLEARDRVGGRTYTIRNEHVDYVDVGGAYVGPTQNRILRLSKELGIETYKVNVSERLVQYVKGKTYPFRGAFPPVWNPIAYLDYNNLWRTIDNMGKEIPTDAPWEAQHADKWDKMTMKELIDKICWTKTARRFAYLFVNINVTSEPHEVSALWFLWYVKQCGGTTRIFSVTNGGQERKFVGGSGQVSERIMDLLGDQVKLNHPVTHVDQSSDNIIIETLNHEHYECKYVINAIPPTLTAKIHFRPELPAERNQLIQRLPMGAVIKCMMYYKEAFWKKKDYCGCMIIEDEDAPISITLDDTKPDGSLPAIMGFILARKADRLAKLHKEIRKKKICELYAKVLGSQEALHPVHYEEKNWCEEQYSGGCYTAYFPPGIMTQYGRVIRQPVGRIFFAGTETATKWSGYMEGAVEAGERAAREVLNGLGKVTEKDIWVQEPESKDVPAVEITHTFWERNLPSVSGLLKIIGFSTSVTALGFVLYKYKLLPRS

[2] = target: T2, human MAO-B (Homo sapiens, UniProt P27338); test: MAO-Glo bioluminescent MAO-B inhibition assay; format: biochemical; conditions: for Selectivity of inhibition between MAO-A and MAO-B, in words: comparison of MAO-A and MAO-B IC50 of Table 1
T2 construct: purchased MilliporeSigma (Milan, Italy); host or cells: baculovirus-infected insect cells (BTI-TN-5B1-4)
T2 sequence (P27338 1-520): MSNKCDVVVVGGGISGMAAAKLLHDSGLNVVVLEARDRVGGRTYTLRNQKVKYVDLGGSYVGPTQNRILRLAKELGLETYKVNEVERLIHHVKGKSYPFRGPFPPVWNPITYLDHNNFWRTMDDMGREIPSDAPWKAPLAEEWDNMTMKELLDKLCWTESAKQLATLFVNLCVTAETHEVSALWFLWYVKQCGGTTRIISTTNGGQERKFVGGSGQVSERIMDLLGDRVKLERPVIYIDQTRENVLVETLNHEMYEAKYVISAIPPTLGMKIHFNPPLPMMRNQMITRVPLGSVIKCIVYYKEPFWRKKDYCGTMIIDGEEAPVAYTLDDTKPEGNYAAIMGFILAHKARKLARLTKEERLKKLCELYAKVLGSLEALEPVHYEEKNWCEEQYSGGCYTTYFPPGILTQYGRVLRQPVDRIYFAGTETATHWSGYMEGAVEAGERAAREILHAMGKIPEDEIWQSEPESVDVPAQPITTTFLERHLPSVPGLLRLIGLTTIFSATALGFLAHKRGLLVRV

[3] = parameters: method as in PMID 21370449; conditions: after consumption of an apple smoothie; cited from earlier work
[4] = molarity, standard metabolites, read-out: IC50 Value MAO-A M
[5] = Table 1, MAO-Glo, mean of quadruplicate determinations, kiwifruit as mg fruit fresh weight/mL, read-out: IC50 Value MAO-B (mg/mL) (converted)
[6] = Table 1, molarity, standard metabolites, read-out: IC50 Value MAO-B M

Compound | IC50 ([1]; MAO-Glo, mean of quadruplicate determinations, kiwifruit as mg fruit fresh weight/mL, read-out: IC50 Value MAO-A (mg/mL) (converted)) [mM] | IC50 [1, 4] [mM] | IC50 [2, 5] [mM] | IC50 [2, 6] [mM] | Selectivity of inhibition between MAO-A and MAO-B, in words [2] | Level detected in ileostomy fluids [3] | IC50 ([1]; IC50 Value MAO-A (mg/mL), MAO-Glo, mean of quadruplicate determinations, kiwifruit as mg fruit fresh weight/mL) [mM] | IC50 ([1]; IC50 Value MAO-A M, molarity, standard metabolites) [mM] | IC50 Value MAO-A ([1]; MAO-Glo, mean of quadruplicate determinations, kiwifruit as mg fruit fresh weight/mL) [µg/mL] | IC50 Value MAO-B ([2]; Table 1, MAO-Glo, mean of quadruplicate determinations, kiwifruit as mg fruit fresh weight/mL) [µg/mL]
O=C(O)/C=C/c1ccc(O)c(O)c1 [Caffeic acid, caffeic acid] | 2.72 | 2.75 ± 0.126 | 0.444 | 0.439 ± 0.03 |  |  |  |  |  | 
O=C(O)[C@]1(O)C[C@@H](O)[C@@H](O)[C@H](O)C1 [D-(−)-Quinic acid, D-(−)-quinic acid] |  |  | 34.3 | 34.4 ± 1.31 | selective activity against MAO-B | ~ 70% |  |  |  | 
O=c1ccc2cc(O[C@@H]3O[C@H](CO)[C@@H](O)[C@H](O)[C@H]3O)c(O)cc2o1 [Esculin] |  |  | 12 | 12.1 ± 0.372 | inhibited both enzymes similarly |  | 11.5 | 11.5 ± 0.43 |  | 
(+)-catechin hydrate |  | 6.46 ± 0.121 |  | 4.03 ± 0.122 | inhibited both enzymes similarly |  |  |  | 1880 ± 40 | 1170 ± 40
